Laboratory results: patent publication US12612360B2 (Sanofi, priority 2020, dated 2026)

Target: T1, ERα (Homo sapiens, UniProt P03372)
T1 construct: host or cells: MCF7
T1 sequence (P03372 1-595): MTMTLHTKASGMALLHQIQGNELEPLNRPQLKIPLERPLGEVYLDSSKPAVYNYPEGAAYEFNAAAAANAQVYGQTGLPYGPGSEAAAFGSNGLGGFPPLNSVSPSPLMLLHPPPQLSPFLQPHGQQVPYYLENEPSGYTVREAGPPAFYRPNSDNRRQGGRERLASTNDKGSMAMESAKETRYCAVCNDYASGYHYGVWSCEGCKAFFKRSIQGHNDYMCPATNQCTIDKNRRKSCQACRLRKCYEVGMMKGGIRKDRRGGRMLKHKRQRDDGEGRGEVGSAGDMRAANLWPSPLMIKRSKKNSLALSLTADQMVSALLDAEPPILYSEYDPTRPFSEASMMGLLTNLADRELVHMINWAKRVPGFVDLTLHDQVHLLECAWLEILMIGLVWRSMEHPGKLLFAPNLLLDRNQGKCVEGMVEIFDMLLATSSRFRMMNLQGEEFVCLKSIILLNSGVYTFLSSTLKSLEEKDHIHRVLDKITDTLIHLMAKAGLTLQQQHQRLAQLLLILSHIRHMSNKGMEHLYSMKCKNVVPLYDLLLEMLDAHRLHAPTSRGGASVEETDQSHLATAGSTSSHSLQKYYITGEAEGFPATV
Experiment: Estrogen receptor degradation activity: breast cancer cell ERα in cell western assay (MCF7 cells)
Type: cell-based
Conditions: for % Degradation At 0.3 μM: 4 hours, relative to fulvestrant 0.1 μM positive control; for DC50: 4 hours post compound addition, concentration which degrades 50% of the estrogen receptor, read-out: Degradation IC50
Protocol: Test: Estrogen Receptor Degradation Activity Said test involves measuring the in vitro degradation activity of the compounds of the Table 1a. The measurements of the degradation activities were made using a breast cancer cell ERα in cell western assay as described hereunder. MCF7 cells (ATCC) were seeded in 384 wells microplate (collagen coated) at a concentration of 10000 cells/30 μL per well in red phenol free MEM alpha medium (invitrogen) containing 5% charcoal dextran striped FBS. The following day, 9 points serial 1:5 dilution of each compound was added to the cells in 2.5 μL at final concentrations ranging from […] (in table 2), or 0.1 μM for fulvestrant (using as positive control). At 4 hours post compound addition the cells were fixed by adding 25 μL of formalin (final concentration 5% formalin containing 0.1% triton) for 10 minutes at room temperature and then washed twice with PBS. Then, 50 μL of LI-COR blocking buffer containing 0.1% Triton was added to plate for 30 minutes at room temperature. LI-COR blocking buffer was removed and cells were incubated overnight at cold room with 50 μL anti-ER rabbit monoclonal antibody (Thermo scientific MA1-39540) diluted at 1:1000 in LI-COR blocking buffer containing 0.1% tween-20. Wells which were treated with blocking buffer but no antibody were used as background control. Wells were washed twice with PBS (0.1% tween-20) and incubated at 37° C. for 60 minutes in LI-COR (0.1% tween-20) containing goat anti-rabbit antibody Alexa 488 (1:1000) and Syto-64 a DNA dye (2 μM final concentration). Cells were then washed 3 times in PBS and scanned in ACUMEN explorer (TTP-Labtech). Integrated intensities in the green fluorescence and red fluorescence were measured to determine the levels of ERα and DNA respectively. The degradation activity with respect to estrogen receptors in this test is given by the concentration which degrades 50% of the estrogen receptor (or IC50) in nM. […] DMSO−fulvestrant)).

COc1nccc(C2=C(c3ccc(C=C4CN(CCCF)C4)cc3)c3ccc(C(=O)O)cc3CCC2)c1F [Example 2, 8-(3-fluoro-2-methoxypyridin-4-yl)-9-(4-((1-(3-fluoropropyl)azetidin-3-ylidene)methyl)phenyl)-6,7-dihydro-5H-benzo[7]annulene-3-carboxylic acid]
% Degradation At 0.3 μM: 92%
DC50: 0.6 nM

Cc1cc(C2=C(c3ccc(F)cc3C)CCCc3cc(C(=O)O)ccc32)c(C)cc1C=C1CN(CCCF)C1 [Example 45, 8-(4-fluoro-2-methylphenyl)-9-(4-((1-(3-fluoropropyl)azetidin-3-ylidene)methyl)-2,5-dimethylphenyl)-6,7-dihydro-5H-benzo[7]annulene-3-carboxylic acid]
% Degradation At 0.3 μM: 89%
DC50: 0.7 nM

O=C(O)c1ccc2c(c1)CCCC([C@H]1C[C@@H]1c1ccccc1)=C2c1ccc(C=C2CN(CCCF)C2)cc1 (racemic) [Example 173, 9-(4-((1-(3-fluoropropyl)azetidin-3-ylidene)methyl)phenyl)-8-((trans)-2-phenylcyclopropyl)-6,7-dihydro-5H-benzo[7]annulene-3-carboxylic acid]
% Degradation At 0.3 μM: 90%
DC50: 0.7 nM

O=C(O)c1ccc2c(c1)CCCC(c1cc(F)ccc1C(F)(F)F)=C2c1ccc(C=C2CN(CCCF)C2)cc1 [Example 153, 8-(5-fluoro-2-(trifluoromethyl)phenyl)-9-(4-((1-(3-fluoropropyl)azetidin-3-ylidene)methyl)phenyl)-6,7-dihydro-5H-benzo[7]annulene-3-carboxylic acid]
% Degradation At 0.3 μM: 92%
DC50: 0.5 nM

O=C(O)c1ccc2c(c1)CCCC(c1ccc(Cl)cc1Cl)=C2c1ccc(C=C2CN(CCCF)C2)cc1 [Example 1, 8-(2,4-Dichlorophenyl)-9-(4-((1-(3-fluoropropyl)azetidin-3-ylidene)methyl)phenyl)-6,7-dihydro-5H-benzo[7]annulene-3-carboxylic acid]
% Degradation At 0.3 μM: 96%
DC50: 0.4 nM

O=C(O)c1ccc2c(c1)CCCC(c1ccc(F)cc1C(F)(F)F)=C2c1ccc(C=C2CN(CCCF)C2)cc1 [Example 95, 8-(4-fluoro-2-(trifluoromethyl)phenyl)-9-(4-((1-(3-fluoropropyl)azetidin-3-ylidene)methyl)phenyl)-6,7-dihydro-5H-benzo[7]annulene-3-carboxylic acid]
% Degradation At 0.3 μM: 94%
DC50: 0.2 nM

COc1cc(C2=C(c3ccc(C=C4CN(CCCF)C4)cc3)c3ccc(C(=O)O)cc3CCC2)c(F)cn1 [Example 156, 8-(5-fluoro-2-methoxypyridin-4-yl)-9-(4-((1-(3-fluoropropyl)azetidin-3-ylidene)methyl)phenyl)-6,7-dihydro-5H-benzo[7]annulene-3-carboxylic acid]
% Degradation At 0.3 μM: 89%
DC50: 0.6 nM

Cc1ccccc1C1=C(c2ccc(C=C3CN(CCCF)C3)cc2)c2ccc(C(=O)O)cc2CCC1 [Example 99, 9-(4-((1-(3-fluoropropyl)azetidin-3-ylidene)methyl)phenyl)-8-(o-tolyl)-6,7-dihydro-5H-benzo[7]annulene-3-carboxylic acid]
% Degradation At 0.3 μM: 95%
DC50: 0.3 nM

O=C(O)c1ccc2c(c1)CCCC(c1c(F)ccc3c1CCC3)=C2c1ccc(C=C2CN(CCC(F)F)C2)cc1 [Example 160, 9-(4-((1-(3,3-difluoropropyl)azetidin-3-ylidene)methyl)phenyl)-8-(5-fluoro-2,3-dihydro-1H-inden-4-yl)-6,7-dihydro-5H-benzo[7]annulene-3-carboxylic acid]
% Degradation At 0.3 μM: 93%
DC50: 0.6 nM

O=C(O)c1ccc2c(c1)CCCC(c1cccc(Cl)c1C(F)(F)F)=C2c1ccc(C=C2CN(CCCF)C2)cc1 [Example 23, 8-(3-chloro-2-(trifluoromethyl)phenyl)-9-(4-((1-(3-fluoropropyl)azetidin-3-ylidene)methyl)phenyl)-6,7-dihydro-5H-benzo[7]annulene-3-carboxylic acid]
% Degradation At 0.3 μM: 96%
DC50: 0.4 nM

Cc1ccc(F)cc1C1=C(c2ccc(C=C3CN(CCCF)C3)cc2)c2ccc(C(=O)O)cc2CCC1 [Example 38, 8-(5-fluoro-2-methylphenyl)-9-(4-((1-(3-fluoropropyl)azetidin-3-ylidene)methyl)phenyl)-6,7-dihydro-5H-benzo[7]annulene-3-carboxylic acid]
% Degradation At 0.3 μM: 91%
DC50: 0.2 nM

O=C(O)c1ccc2c(c1)CCCC(c1cccc(C(F)(F)F)c1Cl)=C2c1ccc(C=C2CN(CCCF)C2)cc1 [Example 147, 8-(2-chloro-3-(trifluoromethyl)phenyl)-9-(4-((1-(3-fluoropropyl)azetidin-3-ylidene)methyl)phenyl)-6,7-dihydro-5H-benzo[7]annulene-3-carboxylic acid]
% Degradation At 0.3 μM: 90%
DC50: 0.3 nM

O=C(O)c1ccc2c(c1)CCCC(c1ccc(F)cc1C(F)(F)F)=C2c1ccc(C=C2CN(CCC(F)(F)F)C2)cc1 [Example 108, 8-(4-fluoro-2-(trifluoromethyl)phenyl)-9-(4-((1-(3,3,3-trifluoropropyl)azetidin-3-ylidene)methyl)phenyl)-6,7-dihydro-5H-benzo[7]annulene-3-carboxylic acid]
% Degradation At 0.3 μM: 92%
DC50: 1.2 nM

O=C(O)c1ccc2c(c1)CCCC(c1cc(C(F)(F)F)ccc1C(F)(F)F)=C2c1ccc(C=C2CN(CCCF)C2)cc1 [Example 151, 8-(2,5-bis(trifluoromethyl)phenyl)-9-(4-((1-(3-fluoropropyl)azetidin-3-ylidene)methyl)phenyl)-6,7-dihydro-5H-benzo[7]annulene-3-carboxylic acid]
% Degradation At 0.3 μM: 90%
DC50: 0.2 nM

Cc1cc(C(F)(F)F)ccc1C1=C(c2ccc(C=C3CN(CCCF)C3)cc2)c2ccc(C(=O)O)cc2CCC1 [Example 3, 9-(4-((1-(3-fluoropropyl)azetidin-3-ylidene)methyl)phenyl)-8-(2-methyl-4-(trifluoromethyl)phenyl)-6,7-dihydro-5H-benzo[7]annulene-3-carboxylic acid]
% Degradation At 0.3 μM: 90%
DC50: 0.3 nM

Cc1cc(C=C2CN(CCCF)C2)c(F)cc1C1=C(c2ccc(F)cc2F)CCCc2cc(C(=O)O)ccc21.Cl [Example 15, 8-(2,4-difluorophenyl)-9-(5-fluoro-4-((1-(3-fluoropropyl)azetidin-3-ylidene)methyl)-2-methylphenyl)-6,7-dihydro-5H-benzo[7]annulene-3-carboxylic acid hydrochloride]
% Degradation At 0.3 μM: 87%
DC50: 0.6 nM

O=C(O)c1ccc2c(c1)CCCC(c1ccc(F)cc1F)=C2c1cc(F)c(C=C2CN(CCCF)C2)c(F)c1 [Example 59, 9-(3,5-difluoro-4-((1-(3-fluoropropyl)azetidin-3-ylidene)methyl)phenyl)-8-(2,4-difluorophenyl)-6,7-dihydro-5H-benzo[7]annulene-3-carboxylic acid]
% Degradation At 0.3 μM: 93%
DC50: 0.4 nM

O=C(O)c1ccc2c(c1)CCCC(c1cc(C(F)(F)F)ccc1F)=C2c1ccc(C=C2CN(CCCF)C2)cc1 [Example 121, 8-(2-fluoro-5-(trifluoromethyl)phenyl)-9-(4-((1-(3-fluoropropyl)azetidin-3-ylidene)methyl)phenyl)-6,7-dihydro-5H-benzo[7]annulene-3-carboxylic acid]
% Degradation At 0.3 μM: 94%
DC50: 0.7 nM
